Assay results taken from patent US6350778B1, “Cinnamoylaminoalkyl-substituted benzenesulfonamide derivatives, processes for their preparation, their use, and pharmaceutical preparations comprising them” (Aventis Pharma Deutschland GmbH, priority 1999, dated 2002).
“And” between values parts separate entries of the source, which are not always exact repeats. Equal values may be shown once. Blank lines part the entries; values can stand above or below the compound they belong to.

Legend:
[1] = system: chloroform-induced ventricular fibrillation in the mouse; assay: Chloroform-induced ventricular fibrillation in the mouse (action in the case of vagal dysfunction); format: in vivo; conditions: for Fibrillation ratio (in %): 3 mg/kg i.p., chloroform anesthesia 30 min later, untreated control 100%
Source text: Chloroform-induced ventricular fibrillation in the mouse (action in the case of vagal dysfunction) A hypofunction of the vagal nervous system leads to a hyperfunction of the sympathetic nervous system. Damages to health which result from an imbalance of the autonomic nervous system if the dysfunction relates to the heart, include weakening of the myocardial contractile force and fatal cardiac arrhythmias such as ventricular fibrillation. The action of the test substances was investigated in the model of chloroform-induced ventricular fibrillation in the mouse (see J. W. Lawson, “Antiarrhythmic activity of some isoquinoline derivatives determined by a rapid screening procedure in the mouse,” J. Pharmacol. Exp. Ther. 160 (1968) 22). […] As soon as respiratory arrest had occurred under deep anesthesia (toxic anesthesia stage), the thorax of the animal was opened with a pair of scissors and the heartbeat was visually inspected. It can be detected at a glance here whether the heart is beating, fibrillating, or has stopped. The respiratory arrest induced by chloroform leads, via absolute anoxia (oxygen deficiency) in combination with a direct stimulating action of chloroform on the sympathetic nervous system, to a strong stimulation of the sympathetic nervous system which in turn leads, in combination with the energy deficiency produced in the heart by oxygen deficiency, to the fatal arrhythmia, ventricular fibrillation. […] The percentage proportion of the mice having ventricular fibrillation in the individual test groups (with n animals) is indicated as the fibrillation ratio. The following fibrillation ratios were determined. […] The experiment is carried out here as described above. […] After a further 15 min, the animals were anesthetized with chloroform and the fibrillation ratio was determined.

[2] = system: papillary muscle of the guinea pig; assay: Action potential duration (APD90) in the papillary muscle of the guinea pig, shortened by rilmakalim (HOE 234); format: cell-based; conditions: starting values 185-193 ms; for APD90 + HOE 234, 30 min, then + test substance, 60 min: test substance 2 μmol/l added after 30 min rilmakalim (HOE 234) 1 μg/ml, recorded after a further 60 min
Source text: Action potential duration in the papillary muscle of the guinea pig
ATP deficiency states, such as are observed during ischemia in the cardiac muscle cell, lead to a shortening of the action potential duration. They are regarded as one of the causes of so-called reentry arrhythmias, which can cause sudden cardiac death. The opening of ATP-sensitive potassium channels by the lowering of the ATP level is regarded as causing this (ATP=adenosine triphosphate). For the measurement of the action potential in the papillary muscle of the guinea pig a standard microelectrode technique was employed.
Guinea pigs of both sexes were killed by a blow to the head, the hearts were removed, and the papillary muscles were separated out and suspended in an organ bath. The organ bath was irrigated with Ringer's solution (136 mmol/l of NaCl, 3.3 mmol/l of KCl, 2.5 mmol/l of CaCl2, 1.2 mmol/l of KH2PO4, 1.1 mmol/l of MgSO4, 5.0 mmol/l of glucose, and 10.0 mmol/l of N-(2-hydroxyethyl)piperazine-N′-(2-ethanesulfonic acid) (HEPES), pH adjusted to 7.4 with NaOH) and aerated with 100% oxygen at a temperature of 37° C. The muscle was stimulated by means of an electrode using square-wave impulses of 1 V and 1 ms duration and a frequency of 1 Hz. The action potential was derived and recorded by means of a glass microelectrode inserted intracellularly, which was filled with 3 mol/l of KCl solution. The substance to be tested was added to the Ringer's solution in a concentration of 2 μmol/l. The action potential was amplified using an amplifier from Hugo Sachs (March-Hugstetten, Germany) and stored and analyzed by means of a computer. The duration of the action potential was determined at a degree of repolarization of 90% (APD90). The action potential shortening was produced by addition of a solution of the potassium channel opener Rilmakalim (HOE 234) (W. Linz et al., Arzneimittelforschung/Drug Research, 42 (II) (1992) 1180-1185) (rilmakalim concentration 1 μg/ml). 30 minutes after the administration of rilmakalim, the action potential duration was recorded. The test substance was then added and the action potential duration, which was prolonged again, was recorded after a further 60 minutes. The test substances were added to the bath solution as stock solutions in propanediol.
The following APD90 values (in milliseconds) were recorded.

[3] = Example 8 10 mg/kg i.p., chloroform 30 min after administration, n = 20
[4] = atropine 1 mg/kg i.v., chloroform 15 min after administration, n = 10

SMILES: CCNC(=S)NS(=O)(=O)c1cc(CCNC(=O)/C=C/c2ccc(OC)cc2OC)ccc1OCCOC [Example 9, 1-(5-(2-(2,4-Dimethoxycinnamoylamino)ethyl)-2-(2-methoxyethoxy)phenylsulfonyl)-3-ethylthiourea]
Fibrillation ratio (in %) ([1]; n = 10): 63%

SMILES: CNC(=O)NS(=O)(=O)c1cc(CCNC(=O)/C=C/c2ccc(OC)cc2OC)ccc1OCCOC [Example 8, 1-(5-(2-(2,4-Dimethoxycinnamoylamino)ethyl)-2-(2-methoxyethoxy)phenysulfonyl)-3-methylurea]
Fibrillation ratio (in %) ([1]; n = 10): 60%
Number of animals with fibrillation [1, 3]: 9
Number of animals with regular heart action [1, 3]: 11
Fibrillation ratio ([1]; Example 8 10 mg/kg i.p., chloroform 30 min after administration, n = 20, p < 0.0001 vs atropine, p = 0.024 vs combination): 45% ^1), 2)
APD90 + HOE 234, 30 min, then + test substance, 60 min [2]: 92 milliseconds

SMILES: CNC(=S)NS(=O)(=O)c1cc(CCNC(=O)/C=C/c2ccccc2)ccc1OC [Example 12, 1-(5-(2-(Cinnamoylamino)ethyl)-2-methoxyphenylsulfonyl)-3-methylthiourea]
Fibrillation ratio (in %) ([1]; n = 10): 63%

SMILES: CNC(=S)NS(=O)(=O)c1cc(CCNC(=O)/C=C/c2ccc(C)cc2C)ccc1OC [Example 5, 1-(5-(2-(2,4-Dimethylcinnamoylamino)ethyl)-2-methoxyphenylsulfonyl)-3-methylthiourea]
Fibrillation ratio (in %) ([1]; n = 10): 70%

SMILES: CNC(=O)NS(=O)(=O)c1cc(CCNC(=O)/C=C/c2ccccc2)ccc1OCCOC [Example 19, 1-(5-(2-(Cinnamoylamino)ethyl)-2-(2-methoxyethoxy)phenylsulfonyl)-3-methylurea]
melting point: 65 °C

SMILES: CN1[C@@H]2CC[C@H]1C[C@@H](OC(=O)C(CO)c1ccccc1)C2 (some centres unmarked) [Atropine, atropine, reference compound]
Fibrillation ratio [1, 4]: 100%
Number of animals with fibrillation [1, 4]: 10
Number of animals with regular heart action [1, 4]: 0

SMILES: CNC(=S)NS(=O)(=O)c1cc(CCNC(=O)/C=C/c2ccc(OC)cc2OC)ccc1OCCOC [Example 7, 1-(5-(2-(2,4-Dimethoxycinnamoylamino)ethyl)-2-(2-methoxyethoxy)phenylsulfonyl)-3-methylthiourea]
APD90 + HOE 234, 30 min, then + test substance, 60 min [2]: 175 milliseconds

SMILES: CC1(C)Oc2ccc(S(=O)(=O)c3ccccc3)cc2[C@@H](N2CCCC2=O)[C@@H]1O [HOE 234, Rilmakalim, reference compound]
APD90 + HOE 234, 30 min ([2]; potassium channel opener rilmakalim (HOE 234) 1 μg/ml alone, 30 min, before test substance, 37° C., 1 Hz): 24 milliseconds and 34 milliseconds

SMILES: CNC(=S)NS(=O)(=O)c1cc(CCNC(=O)/C=C/c2ccc(OC)cc2OC)ccc1OC [Example 1, 1-(5-(2-(2,4-Dimethoxycinnamoylamino)ethyl)-2-methoxyphenysulfonyl)-3-methylthiourea]
Fibrillation ratio (in %) ([1]; n = 10): 60%
APD90 + HOE 234, 30 min, then + test substance, 60 min [2]: 177 milliseconds

Next, values leading:

melting point: 188 to 190 °C
SMILES: CNC(=S)NS(=O)(=O)c1cc(CCNC(=O)/C=C/c2cc(Cl)ccc2OC)ccc1OC [Example 21, 1-(5-(2-(5-Chloro-2-methoxycinnamoylamino)ethyl)-2-methoxyphenylsulfonyl)-3-methylthiourea]

melting point: 210 °C
SMILES: CNC(=O)NS(=O)(=O)c1cc(CCNC(=O)/C=C/c2ccc(OC)cc2OC)ccc1OC [Example 2, 1-(5-(2-(2 ,4-Dimethoxycinnamoylamino)ethyl)-2-methoxyphenylsulfonyl)-3-methylurea]

melting point: 150 °C
SMILES: CNC(=S)NS(=O)(=O)c1cc(CCNC(=O)/C=C/c2ccccc2)ccc1OCCOC [Example 17, 1-(5-(2-(Cinnamoylamino)ethyl)-2-(2-methoxyethoxy)phenylsulfonyl)-3-methylthiourea]

melting point: 116 °C
SMILES: CNC(=S)NS(=O)(=O)c1cc(CCNC(=O)/C=C/c2ccc(C)cc2C)ccc1OCCOC [Example 26, 1-(5-(2-(2,4-Dimethylcinnamoylamino)ethyl)-2-(2-methoxyethoxy)phenylsufonyl)-3-methylthiourea]

melting point: 76 to 78 °C
SMILES: CNC(=S)NS(=O)(=O)c1cc(CCNC(=O)/C=C/c2ccc(Cl)cc2Cl)ccc1OCCOC [Example 24]

melting point: 171 to 175 °C
SMILES: C=CCOc1ccc(CCNC(=O)/C=C/c2ccc(OC)cc2OC)cc1S(=O)(=O)NC(=S)NC [Example 23, 1-(2-Allyloxy-5-(2-(2,4-dimethoxycinnamoylamino)ethyl)phenylsulfonyl)-3-methylthiourea]

melting point: 73 °C
SMILES: CNC(=S)NS(=O)(=O)c1cc(CCNC(=O)/C=C/c2cc(C(C)(C)C)ccc2OC)ccc1OCCOC [Example 25, 1-(5-(2-(5-tert-Butyl-2-methoxycinnamoylamino)ethyl)-2-(2-methoxyethoxy)phenyl-sulfonyl)-3-methylthiourea]

melting point: 90 °C
SMILES: CCNC(=S)NS(=O)(=O)c1cc(CCNC(=O)/C=C/c2ccc(OC)cc2OC)ccc1OC [Example 3, 1-(5-(2-(2,4-Dimethoxycinnamoylamino)ethyl)-2-methoxyphenylsulfonyl)-3-ethylthiourea]

melting point: 227 to 229 °C
SMILES: CNC(=O)NS(=O)(=O)c1cc(CCNC(=O)/C=C/c2ccc(C)cc2C)ccc1OC [Example 6, 1-(5-(2-(2,4-Dimethylcinnamoylamino)ethyl)-2-methoxyphenylsulfonyl)-3-methylurea]

melting point: 96 °C
SMILES: CCNC(=O)NS(=O)(=O)c1cc(CCNC(=O)/C=C/c2ccc(OC)cc2OC)ccc1OC [Example 4, 1-(5-(2-(2,4-Dimethoxycinnamoylamino)ethyl)-2-methoxyphenylsulfonyl)-3-ethylurea]
